Reference: patent publication US10507201B2, “Use of ring-fused bicyclic pyridyl derivatives as FGFR4 inhibitors” (NOVARTIS AG, priority 2014, dated 2019)

How the values were obtained:
[1] = test system: JHH7 hepatocellular carcinoma cells; test: Methylene Blue Staining proliferation assay (MBS), JHH7; format: cell-based
Description: (§1) The effect of compounds on cell proliferation is assessed using HuH-7 hepatocellular carcinoma cells obtained from the Japanese Collection of Research Bioresources Cell Bank (Cat#JCRB0403) and cultured in the vendor-recommended medium (DMEM high glucose (Amimed Cat#1-26F01-I), 10% foetal calf serum (Invitrogen Cat#16140-071), 1 mM sodium pyruvate (Amimed Cat#5-60F00-H), 1× Penicillin/Streptomycin (Amimed Cat#4-01F00-H)) at 37° C. in a humidified 5% CO2 incubator. Specifically, 5000 cells/well were seeded in 96-well tissue culture plates (TPP Cat#92696) in a total media volume of 100 μl/well and increasing compound dilutions or DMSO were added 24 hours thereafter in triplicates. 72 hours after compound addition, cells were fixed by adding 25 μL/well of 20% glutaraldehyde (Sigma Aldrich Cat#G400-4) and incubated for 10 minutes at room temperature. Cells were washed three times with H2O, 200 μL/well and stained with 100 μL/well 0.05% methylene blue (ABCR GmbH Cat#AB117904) for 10 minutes at room temperature. Cells were washed 3 times with H2O, 200 μL/well and then lysed by adding 200 μL/well of 3% HCl (Fluka Cat#84422) for 30 minutes at room temperature with shaking. Optical density was measured at A650 nm.
(§2) The effect of compounds on cell proliferation using Hep 3B2.1-7 hepatocellular carcinoma cells, FU97 gastric cancer cells, JHH7 hepatocellular carcinoma cells or JHH6 hepatocellular carcinoma cells is assessed as above. Hep 3B2.1-7, FU97, JHH7 or JHH6 are obtained from the Japanese Collection of Research Bioresources Cell Bank. Hep 3B2.1-7 cells are cultured in EMEM+10% FCS+1 mM Na pyruvate+2 mM L-glutamine and 2000 cells/well are seeded for the proliferation assay. FU97 cells are cultured in DMEM high glucose+10% FCS+1 mM Na pyruvate+4 mM L-glutamine+1×ITS and 2000 cells/well are seeded for the proliferation assay. JHH6 and JHH7 cells are cultured in William's E+10% FCS+2 mM L-glutamine and 3000 cells are seeded for the proliferation assay.

[2] = test system: HuH-7 hepatocellular carcinoma cells; test: Methylene Blue Staining proliferation assay (MBS), HuH-7; format: cell-based; conditions: Homo sapiens, HuH-7 cells, 72 hours after compound addition, read-out: HUH7 proliferation (nM) MBS
Description: Methylene Blue Staining Proliferation Assay (MBS):
(§3) 72 hours after compound addition, cells were fixed by adding 25 μL/well of 20% glutaraldehyde (Sigma Aldrich Cat#G400-4) and incubated for 10 minutes at room temperature. Cells were washed three times with H2O, 200 μL/well and stained with 100 μL/well 0.05% methylene blue (ABCR GmbH Cat#AB117904) for 10 minutes at room temperature. […] Optical density was measured at A650 nm.

[3] = test system: HuH-7 hepatocellular carcinoma cells; test: CellTiter Glo (CTG) assay, HuH-7; conditions: Homo sapiens, Huh-7, 72 h, read-out: HUH7 proliferation (nM) CTG
Description: CellTiter Glo (CTG) Assay:
Compound-mediated suppression of cell proliferation/viability is assessed by quantification of cellular ATP levels using the CellTiter-Glo (CTG) reagent (Promega, Cat#G7573). […] For data analysis, the assay background value determined in wells containing medium, but no cells, is subtracted from all data points. […] The effect of a particular test compound concentration on cell proliferation/viability is expressed as percentage of the background- and day 0-corrected luminescence reading obtained for cells treated with vehicle only (DMSO, 0.1% f.c.), which is set as 100%, whereas the luminescence reading for wells containing medium only, but no cells, is set as −100%. Compound concentrations leading to half-maximal growth inhibition (GI50) are determined using standard four parameter curve fitting (XLfit 5.2., IDBS, UK).

[4] = test system: FU97 gastric cancer cells; test: Methylene Blue Staining proliferation assay (MBS), FU97; format: cell-based
Description: as §1, §2

[5] = test system: Hep 3B2.1-7 hepatocellular carcinoma cells; test: Methylene Blue Staining proliferation assay (MBS), Hep 3B2.1-7; format: cell-based; conditions: Homo sapiens, Hep3B, Hep 3B2.1-7 cells
Description: as §3, §2

Structure (SMILES)	IC50 [1] [nM]	IC50 [2] [nM]	IC50 [3] [nM]	IC50 [4] [nM]	IC50 [5] [nM]
N#Cc1ccc(NC(=O)N2CCCc3cc(CO)c(C=O)nc32)nc1 [Example 27, N-(5-cyanopyridin-2-yl)-7-formyl-6-(hydroxymethyl)-3,4-dihydro-1,8-naphthyridine-1(2H)-carboxamide]	> 3000				
COCCOc1cc(NC(=O)N2CCCc3cc(CO)c(C=O)nc32)ncc1C#N [Example 39, N-(5-cyano-4-(2-methoxyethoxy)pyridin-2-yl)-7-formyl-6-(hydroxymethyl)-3,4-dihydro-1,8-naphthyridine-1(2H)-carboxamide]	> 3000	123	569		
N#Cc1cnc(NC(=O)N2CCCc3cc(CO)c(C=O)nc32)cc1O[C@H]1CCOC1 [Example 50, (S)—N-(5-cyano-4-((tetrahydrofuran-3-yl)oxy)pyridin-2-yl)-7-formyl-6-(hydroxymethyl)-3,4-dihydro-1,8-naphthyridine-1(2H)-carboxamide]	484	270		234	
COCCOc1cc(NC(=O)N2CCCc3cc(C(F)F)c(C=O)nc32)ncc1C#N [Example 63, N-(5-cyano-4-(2-methoxyethoxy)pyridin-2-yl)-6-(difluoromethyl)-7-formyl-3,4-dihydro-1,8-naphthyridine-1(2H)-carboxamide]	> 3000				
CC(=O)N(C)Cc1cc2c(nc1C=O)N(C(=O)Nc1ccc(C#N)cn1)CCC2 [Example 68, N-(5-cyanopyridin-2-yl)-7-formyl-6-((N-methylacetamido)methyl)-3,4-dihydro-1,8-naphthyridine-1(2H)-carboxamide]	> 3000				> 3000
COCCNc1cc(NC(=O)N2CCCc3cc(CO)c(C=O)nc32)ncc1C#N [Example 80, N-(5-cyano-4-((2-methoxyethyl)amino)pyridin-2-yl)-7-formyl-6-(hydroxymethyl)-3,4-dihydro-1,8-naphthyridine-1(2H)-carboxamide]	150		168	96	
COCCNc1cc(NC(=O)N2CCCc3cc(CN4CCN(C)CC4=O)c(C=O)nc32)ncc1C#N [Example 83, N-(5-cyano-4-((2-methoxyethyl)amino)pyridin-2-yl)-7-formyl-6-((4-methyl-2-oxopiperazin-1-yl)methyl)-3,4-dihydro-1,8-naphthyridine-1(2H)-carboxamide]	9	12	60.9	23	1
CC(C)Oc1cc(NC(=O)N2CCCc3cc(CN4CCN(C)CC4=O)c(C=O)nc32)ncc1C#N [Example 92, N-(5-cyano-4-isopropoxypyridin-2-yl)-7-formyl-6-((4-methyl-2-oxopiperazin-1-yl)methyl)-3,4-dihydro-1,8-naphthyridine-1(2H)-carboxamide]			38		
COCCOc1cc(NC(=O)N2CCCc3cc(CN4CCN(C)CC4=O)c(C=O)nc32)ncc1C#N [Example 101, N-(5-cyano-4-(2-methoxyethoxy)pyridin-2-yl)-7-formyl-6-((4-methyl-2-oxopiperazin-1-yl)methyl)-3,4-dihydro-1,8-naphthyridine-1(2H)-carboxamide]		82	142		
COC[C@@H](C)Oc1cc(NC(=O)N2CCCc3cc(CN4CCN(C)CC4=O)c(C=O)nc32)ncc1C#N [Example 205, (R)—N-(5-cyano-4-((1-methoxypropan-2-yl)oxy)pyridin-2-yl)-7-formyl-6-((4-methyl-2-oxopiperazin-1-yl)methyl)-3,4-dihydro-1,8-naphthyridine-1(2H)-carboxamide]			17.8		5
